Assay results from paper PMC3747139 (PLoS ONE, 2013).
Read-outs that look alike come from different tables or passages of the source.

Experiments:
B16F10 cells = test: MTT assay; format: cell-based, human; conditions: Mus musculus, B16-F10, B16F10 cells, 24 h and 48 h, read-out: half maximal inhibitory concentration (IC50)
Protocol: Normal human cell lines (CRL-2115, CRL-2120) as well as human cancer cell lines (NCM-460, He La, MCF-7, B16F10 and A549) were cultured according to the supplier's recommendations. To study the cytotoxicity of the ligands, after 80% confluence, cells were trypsinized with 0.1% trypsin-EDTA and harvested by centrifugation at 500× g. Serial dilutions of cells were made from 1×10^6 to 1×10^3 cells per ml. The cells were seeded in triplicate in a 96 well plate. The suspended cells were treated with 50 µM, 100 µM, 150 µM, 200 µM, 250 µM and 300 µM of each ligand, at two different time points (24 h and 48 h). Normal as well as tumor cells to which no ligand was added served as control. After incubation, MTT (100 µl, 5 mg mL^−1) solution was added to each well and the cell viability was determined by measuring the ability of cells to transform MTT to a purple coloured formazan dye. The absorbance of samples at 570 nm was measured using a UV-Visible spectrophotometer. Percentage of viable cells was calculated using the formula given below. [drawing 1] Where the OD570 (sample) corresponds to absorbance obtained from the wells treated with ligands and the OD570 (control) represents the absorbance from the wells in which no ligand was added.

[1] = Cell count assay (trypan blue); format: cell-based; parameters: concentration or dose not given beside the values; conditions: human; for viability at 24 h: read-out: Number of viable cells after 24 h of ligand treatment; for viability at 48 h: read-out: Number of viable cells after 48 h of ligand treatment
Protocol: (§1) Normal and tumor cell lines were seeded at 20000–40000 cells/cm^2 with 0.2 mL/cm^2 media and incubated for 48 h at 37°C, 6% CO2, 95% relative humidity. […] After 24 h and 48 h of incubation, cells were washed with 300 µl PBS or 0.02% EDTA, trypsinized, followed by harvesting at 37°C. 200 µl cell suspension was transferred into 1.5 ml microcentrifuge tube. To the cell suspension, 300 µl PBS followed by 500 µl of 0.4% trypan blue solution was added. To get the homogenised solution, the microcentrifuge tube was gently tapped for 5 min, 20 µl of cell suspension was loaded in to a chamber of the haemocytometer.

A549 = test: Cell count assay (trypan blue); format: cell-based, human; conditions: for Number of viable cells after 24 h of ligand treatment: A549, 24 h; for Number of viable cells after 48 h of ligand treatment: A549, 48 h;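 as to Number of viable cells after 24 h of ligand treatment: each ligand tested at its own IC50 concentration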
Protocol: as §1

B16F10 = test: Cell count assay (trypan blue); format: cell-based, human; conditions: for Number of viable cells after 24 h of ligand treatment: B16F10, 24 h; for Number of viable cells after 48 h of ligand treatment: B16F10, 48 h
Protocol: as §1

MCF-7 = test: Cell count assay (trypan blue); format: cell-based, human; conditions: for Number of viable cells after 24 h of ligand treatment: MCF-7, 24 h; for Number of viable cells after 48 h of ligand treatment: MCF-7, 48 h;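 as to Number of viable cells after 48 h of ligand treatment: each ligand tested at its own IC50 concentration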
Protocol: as §1

B16F10 melanoma cells [2] = test: Preclinical study: tumor size in tumor-induced mice; format: in vivo; conditions: C57BL6/J mice with B16F10 tumor; 200 µM L1, 125 µM L2, 50 µM L3; end of experiment
Protocol: (§2) C57BL6/J mice were used from the animal house facility located at CCMB (Hyderabad, India). All animal experimental studies were carried out in strict accordance with the recommendations in the guide for the care and use of laboratory animals of Centre for Cellular and Molecular Biology (CCMB). All the animal experimental protocols were approved by the Institutional Animal Ethical Committee (IAEC) of Centre for Cellular and Molecular Biology (CCMB with Permit number: CPCSEA 20/1999, Ministry of Environment and Forest, Government of India).The protocol was approved by the Institutional Animal Ethical Committee (IAEC) of CCMB (Protocol number: IAEC 16/2012). All the surgery was performed under sodium pentobarbital anaesthesia, and all efforts were made to minimize suffering. C57BL6/J mice, 6–8 weeks old, were subcutaneously injected with 2×10^5 B16F10 melanoma cells, in the […] region. After the tumor attained a size of 500–1000 mm^3 (≈9 days following cancer cell implantation), mice were grouped and treated as follows.
(§3) Group (i) was treated with vehicle control (4 mice), group (ii) with 200 µM of L1 (4 mice), group (iii) with 125 µM of L2 (4 mice) and group (iv) with 50 µM of L3 (4 mice). These experiments were repeated thrice and mean values were considered. Size of tumor was measured every day at a fixed time. The tumor sizes were calculated using the formula (0.5 ab^2), where ‘a’ was the largest dimension and ‘b’ was the smallest dimension of the tumor. The experiment was terminated when the average tumor volume of the control/treated group was 10000–12000 mm^3.

B16F10 melanoma cells [3] = test: Preclinical study: survival of tumor-induced mice; format: in vivo, C57BL6/J mice; conditions: 200 µM L1, 125 µM L2, 50 µM L3 on alternate days for 2 weeks
Protocol: as §2, §3

HQF DNA d(TTAGGG)4 = test: Isothermal titration calorimetry; format: binding, human; conditions: ITC; for K1 x 10^-7 / K2 x 10^-5: two-sites model, 100 mM KBPES pH 7.0; for K1 x 10^-7: mode-1, 25°C; for K2 x 10^-5: mode-2, 25°C; for Kd: quadruplex DNA, read-out: Kd, higher affinity interaction (mode-1)
Protocol: When quadruplex DNA melts to form ssDNA structure, SG fluorescence intensity gradually reduces as SG has no binding to ssDNA. Each time, 5 µM of HQF DNA [d(T2AG3)4)], 5 µM of dsDNA (prepared by mixing equal concentration of poly-dA-dT and poly-dT-dA), 5 µM ssDNA ( poly dT alone) and 1 µM of each ligand was incubated at 4°C for 16 h, and used for melting studies. […] Affinity, stoichiometry and thermodynamic parameters for quadruplex-ligand complex were studied with 60 µM of ligand and 10 µM of HQF DNA using Microcal VP-ITC (Northampton, MA, USA). Ligand addition to G-quadruplex DNA was made every 180 seconds. Titration experiments were performed thrice and blank correction was made each time to minimize error.
On integrating the heats produced per injection, with respect to time and conversion to per mole basis, the binding isotherm (Figure 8A) corresponding to each ligand was obtained. […] After making blank correction, the heat data was fitted with “two-independent sites” model and analyzed using Origin 7.1 to calculate thermodynamic parameters.

[4] = test system: HQF DNA (human quadruplex forming DNA), d(TTAGGG)4 (DNA, G4) TTAGGGTTAGGGTTAGGGTTAGGG; test: SYBR Green fluorescence melting; conditions: 1 µM ligand, 5 µM DNA, melting buffer not stated
[5] = CRL-2115 cells (normal cell line), CRL-2115, 24 h
[6] = CRL-2115 cells (normal cell line), CRL-2115, 48 h
[7] = CRL-2120 cells (normal cell line), CRL-2120, 24 h
[8] = CRL-2120 cells (normal cell line), CRL-2120, 48 h
[9] = NCM-460 cells (normal cell line), NCM-460, 24 h
[10] = NCM-460 cells (normal cell line), NCM-460, 48 h

| SMILES | IC50 (B16F10 cells) [µM] | viability at 24 h [1, 5] [%] | viability at 48 h [1, 6] [%] | viability at 24 h [1, 7] [%] | viability at 48 h [1, 8] [%] | viability at 24 h [1, 9] [%] | viability at 48 h [1, 10] [%] | Number of viable cells after 24 h of ligand treatment (A549) | Number of viable cells after 48 h of ligand treatment (A549) | Number of viable cells after 24 h of ligand treatment (B16F10) | Number of viable cells after 48 h of ligand treatment (B16F10) | Number of viable cells after 24 h of ligand treatment (MCF-7) | Number of viable cells after 48 h of ligand treatment (MCF-7) | tumor size (B16F10 melanoma cells [2]) | Number of days survived (B16F10 melanoma cells [3]) | survival period of treated mice (B16F10 melanoma cells [3]) | K1 x 10^-7 (HQF DNA d(TTAGGG)4) | K2 x 10^-5 (HQF DNA d(TTAGGG)4) | Kd (HQF DNA d(TTAGGG)4) [µM] | other results |
| --- | --- | --- | --- | --- | --- | --- | --- | --- | --- | --- | --- | --- | --- | --- | --- | --- | --- | --- | --- | --- |
| Cc1cn([C@H]2C[C@H](N=[N+]=[N-])[C@@H](CO)O2)c(=O)[nH]c1=O [Ligand L1, 1-(4-azido 5-(hydroxylmethyl)tetrahydrofuran-2-yl)-5-methyl pyrimidi-ne-2,4(1H,3H)-dione, reference compound] | ~200 | 80 to 90 | 50 to 60 | 80 to 90 | 50 to 60 | 80 to 90 | 50 to 60 | + (Viable cells in the range of 80%–90%) | ++ (Viable cells in the range of 50%–60%) | ++ (Viable cells in the range of 50%–60%) | +++ (Viable cells which are equal or less than 30%) | + (Viable cells in the range of 80%–90%) | ++ (Viable cells in the range of 50%–60%) | 6000–8000 mm^3 | 25 (±5) days | ~4 weeks | 0.72 (± 0.3) | 2.14 (± 0.2) |  | ΔTm ([4]; derived from two Tm (28 and 27 °C)): 1 °C |
| Cc1cn([C@H]2C[C@H](n3cc(-c4ccccc4)nn3)[C@@H](CO)O2)c(=O)[nH]c1=O [Ligand L2] | ~125 | 80 to 90 | 50 to 60 | 80 to 90 | 50 to 60 | 80 to 90 | 50 to 60 | ++/++ (Viable cells in the range of 50%–60%) | ++/++ (Viable cells in the range of 50%–60%) | ++ (Viable cells in the range of 50%–60%) | +++ (Viable cells which are equal or less than 30%) | + (Viable cells in the range of 80%–90%) | ++ (Viable cells in the range of 50%–60%) | 6000–8000 mm^3 | 31 (±4) days | ~5 weeks | 1.35 (± 0.1) | 2.61 (± 0.3) | ~0.1 | ΔTm ([4]; derived from two Tm (42 and 27 °C)): 15 °C |
| Cc1cn([C@H]2C[C@H](n3cc(-c4ccc(Cl)cc4)nn3)[C@@H](CO)O2)c(=O)[nH]c1=O [Ligand L3, 1-(4-(4-(4-chlorophenly)-1H-1,2,3-triazole-1-yl)-5-(hydroxymethyl)tetrahydrofuran-2-yl)-5-methylpyrimidine-2,3(1H,3H)-dione] | 50 | 80 to 90 | 50 to 60 | 80 to 90 | 50 to 60 | 80 to 90 | 50 to 60 | ++ (Viable cells in the range of 50%–60%) | +++ (Viable cells which are equal or less than 30%) | ++ (Viable cells in the range of 50%–60%) | +++ (Viable cells which are equal or less than 30%) | ++/++ (Viable cells in the range of 50%–60%) | ++/++ (Viable cells in the range of 50%–60%) | ≈ 4500 mm^3 | 40 (±6) days | about 6 weeks |  | 2.82 (±0.5) | ~0.1 | ΔTm ([4]; derived from two Tm (52 and 27 °C)): 25 °C |
